Reference: ChEMBL document CHEMBL1806455, “Synthesis, activity and pharmacokinetics of novel antibacterial 15-membered ring macrolones” (Eur J Med Chem, 2011)
Converted amounts (≈) assume the structure as drawn.

Legend:
Assay type in all cases: functional
[1] = test system: Staphylococcus aureus; experiment: Antibacterial activity against erythromycin-sensitive Staphylococcus aureus ATCC 13709 by broth microdilution method
[2] = test system: Streptococcus pneumoniae; experiment: Antibacterial activity against erythromycin-sensitive Streptococcus pneumoniae SP030 by broth microdilution method
[3] = test system: Streptococcus pyogenes; experiment: Antibacterial activity against erythromycin-sensitive Streptococcus pyogenes 3565 by broth microdilution method
[4] = test system: Staphylococcus aureus; experiment: Antibacterial activity against efflux-mediated macrolide-resistant Staphylococcus aureus PK1 by broth microdilution method
[5] = test system: Streptococcus pneumoniae; experiment: Antibacterial activity against efflux-mediated macrolide-resistant Streptococcus pneumoniae Ci137 by broth microdilution method
[6] = test system: Streptococcus pyogenes; experiment: Antibacterial activity against efflux-mediated macrolide-resistance Streptococcus pyogenes 2 Finland by broth microdilution method
[7] = test system: Staphylococcus aureus; experiment: Antibacterial activity against inducible macrolide-lincosamide-streptogramin B resistant Staphylococcus aureus 90256 by broth microdilution method
[8] = test system: Streptococcus pneumoniae; experiment: Antibacterial activity against inducible macrolide-resistant, constitutive lincosamide, streptogramin-resistant Streptococcus pneumoniae 134 GR M by broth microdilution method
[9] = test system: Streptococcus pyogenes; experiment: Antibacterial activity against inducible macrolide-lincosamide-streptogramin B resistant Streptococcus pyogenes Finland 11 by broth microdilution method
[10] = test system: Staphylococcus aureus; experiment: Antibacterial activity against constitutive macrolide, lincosamide, streptogramin-resistant Staphylococcus aureus PK2 by broth microdilution method
[11] = test system: Streptococcus pneumoniae; experiment: Antibacterial activity against constitutive macrolide, lincosamide, streptogramin-resistant Streptococcus pneumoniae 58 spain by broth microdilution method
[12] = test system: Streptococcus pyogenes; experiment: Antibacterial activity against macrolide, lincosamide, streptogramin-resistant Streptococcus pyogenes 166 GR-Micro by broth microdilution method
[13] = test system: Haemophilus influenzae; experiment: Antibacterial activity against Haemophilus influenzae ATCC 49247 by broth microdilution method
[14] = test system: Moraxella catarrhalis; experiment: Antibacterial activity against Moraxella catarrhalis ATCC 23246 by broth microdilution method

SMILES: CC[C@H]1OC(=O)[C@H](C)[C@@H](O[C@H]2C[C@@](C)(OC)[C@@H](OC(=O)CCOCCOc3cc4c(=O)c(C(=O)O)cn(C5CC5)c4cc3Cl)[C@H](C)O2)[C@H](C)[C@@H](O[C@@H]2O[C@H](C)C[C@H](N(C)C)[C@H]2O)[C@](C)(O)C[C@@H](C)CN(C)[C@H](C)[C@@H](O)[C@]1(C)O
- MIC [1]: 0.25 µg/mL (≈ 0.222 µM)
- MIC [2]: ≤ 0.125 µg/mL
- MIC [3]: ≤ 0.125 µg/mL
- MIC [4]: 0.5 µg/mL (≈ 0.444 µM)
- MIC [5]: ≤ 0.125 µg/mL
- MIC [6]: ≤ 0.125 µg/mL
- MIC [7]: 0.5 µg/mL (≈ 0.444 µM)
- MIC [8]: 0.25 µg/mL (≈ 0.222 µM)
- MIC [9]: ≤ 0.125 µg/mL
- MIC [10]: > 64 µg/mL
- MIC [11]: 0.5 µg/mL (≈ 0.444 µM)
- MIC [12]: 0.25 µg/mL (≈ 0.222 µM)
- MIC [13]: 1 µg/mL (≈ 0.887 µM)
- MIC [14]: 1 µg/mL (≈ 0.887 µM)

SMILES: CC[C@H]1OC(=O)[C@H](C)[C@@H](O[C@H]2C[C@@](C)(OC)[C@@H](OC(=O)CCOCCOCCNc3cc4c(=O)c(C(=O)O)cn(CC)c4cc3Cl)[C@H](C)O2)[C@H](C)[C@@H](O[C@@H]2O[C@H](C)C[C@H](N(C)C)[C@H]2O)[C@](C)(O)C[C@@H](C)CN(C)[C@H](C)[C@@H](O)[C@]1(C)O
- MIC [1]: ≤ 0.125 µg/mL
- MIC [2]: ≤ 0.125 µg/mL
- MIC [3]: ≤ 0.125 µg/mL
- MIC [4]: ≤ 0.125 µg/mL
- MIC [5]: ≤ 0.125 µg/mL
- MIC [6]: ≤ 0.125 µg/mL
- MIC [7]: ≤ 0.125 µg/mL
- MIC [8]: ≤ 0.125 µg/mL
- MIC [9]: ≤ 0.125 µg/mL
- MIC [10]: 16 µg/mL (≈ 13.8 µM)
- MIC [11]: ≤ 0.125 µg/mL
- MIC [12]: 0.25 µg/mL (≈ 0.216 µM)
- MIC [13]: 1 µg/mL (≈ 0.864 µM)
- MIC [14]: 0.5 µg/mL (≈ 0.432 µM)

SMILES: CCCn1cc(C(=O)O)c(=O)c2cc(NCCOCCOCCC(=O)O[C@H]3[C@H](C)O[C@@H](O[C@H]4[C@H](C)[C@@H](O[C@@H]5O[C@H](C)C[C@H](N(C)C)[C@H]5O)[C@](C)(O)C[C@@H](C)CN(C)[C@H](C)[C@@H](O)[C@](C)(O)[C@@H](CC)OC(=O)[C@@H]4C)C[C@@]3(C)OC)c(Cl)cc21
- MIC [1]: 0.25 µg/mL (≈ 0.213 µM)
- MIC [2]: ≤ 0.125 µg/mL
- MIC [3]: ≤ 0.125 µg/mL
- MIC [4]: 0.25 µg/mL (≈ 0.213 µM)
- MIC [5]: ≤ 0.125 µg/mL
- MIC [6]: ≤ 0.125 µg/mL
- MIC [7]: 32 µg/mL (≈ 27.3 µM)
- MIC [8]: 1 µg/mL (≈ 0.853 µM)
- MIC [9]: ≤ 0.125 µg/mL
- MIC [10]: > 64 µg/mL
- MIC [11]: ≤ 0.125 µg/mL
- MIC [12]: 1 µg/mL (≈ 0.853 µM)
- MIC [13]: 4 µg/mL (≈ 3.41 µM)
- MIC [14]: 0.5 µg/mL (≈ 0.427 µM)

SMILES: CC[C@H]1OC(=O)[C@H](C)[C@@H](O[C@H]2C[C@@](C)(OC)[C@@H](OC(=O)CCOCCOCCNc3cc4c(=O)c(C(=O)O)cn(C(C)C)c4cc3Cl)[C@H](C)O2)[C@H](C)[C@@H](O[C@@H]2O[C@H](C)C[C@H](N(C)C)[C@H]2O)[C@](C)(O)C[C@@H](C)CN(C)[C@H](C)[C@@H](O)[C@]1(C)O
- MIC [1]: ≤ 0.125 µg/mL
- MIC [2]: ≤ 0.125 µg/mL
- MIC [3]: ≤ 0.125 µg/mL
- MIC [4]: ≤ 0.125 µg/mL
- MIC [5]: ≤ 0.125 µg/mL
- MIC [6]: ≤ 0.125 µg/mL
- MIC [7]: 0.25 µg/mL (≈ 0.213 µM)
- MIC [8]: 0.25 µg/mL (≈ 0.213 µM)
- MIC [9]: ≤ 0.125 µg/mL
- MIC [10]: 64 µg/mL (≈ 54.6 µM)
- MIC [11]: ≤ 0.125 µg/mL
- MIC [12]: 1 µg/mL (≈ 0.853 µM)
- MIC [13]: 1 µg/mL (≈ 0.853 µM)
- MIC [14]: 1 µg/mL (≈ 0.853 µM)

SMILES: CC[C@H]1OC(=O)[C@H](C)[C@@H](O[C@H]2C[C@@](C)(OC)[C@@H](OC(=O)CCOCCNc3ccc4c(c3)c(=O)c(C(=O)O)cn4C3CC3)[C@H](C)O2)[C@H](C)[C@@H](O[C@@H]2O[C@H](C)C[C@H](N(C)C)[C@H]2O)[C@](C)(O)C[C@@H](C)CN(C)[C@H](C)[C@@H](O)[C@]1(C)O
- MIC [1]: 0.5 µg/mL (≈ 0.458 µM)
- MIC [2]: ≤ 0.125 µg/mL
- MIC [3]: ≤ 0.125 µg/mL
- MIC [4]: 1 µg/mL (≈ 0.916 µM)
- MIC [5]: ≤ 0.125 µg/mL
- MIC [6]: ≤ 0.125 µg/mL
- MIC [7]: 0.5 µg/mL (≈ 0.458 µM)
- MIC [8]: 0.25 µg/mL (≈ 0.229 µM)
- MIC [9]: ≤ 0.125 µg/mL
- MIC [10]: 32 µg/mL (≈ 29.3 µM)
- MIC [11]: ≤ 0.125 µg/mL
- MIC [12]: ≤ 0.125 µg/mL
- MIC [13]: 1 µg/mL (≈ 0.916 µM)
- MIC [14]: 0.5 µg/mL (≈ 0.458 µM)

SMILES: CC[C@H]1OC(=O)[C@H](C)[C@@H](O[C@H]2C[C@@](C)(OC)[C@@H](OC(=O)CCOCCOc3ccc4c(c3)c(=O)c(C(=O)O)cn4C3CC3)[C@H](C)O2)[C@H](C)[C@@H](O[C@@H]2O[C@H](C)C[C@H](N(C)C)[C@H]2O)[C@](C)(O)C[C@@H](C)CN(C)[C@H](C)[C@@H](O)[C@]1(C)O
- MIC [1]: ≤ 0.125 µg/mL
- MIC [2]: ≤ 0.125 µg/mL
- MIC [3]: ≤ 0.125 µg/mL
- MIC [4]: 0.25 µg/mL (≈ 0.229 µM)
- MIC [5]: ≤ 0.125 µg/mL
- MIC [6]: ≤ 0.125 µg/mL
- MIC [7]: 1 µg/mL (≈ 0.915 µM)
- MIC [8]: ≤ 0.125 µg/mL
- MIC [9]: ≤ 0.125 µg/mL
- MIC [10]: 32 µg/mL (≈ 29.3 µM)
- MIC [11]: ≤ 0.125 µg/mL
- MIC [12]: 0.25 µg/mL (≈ 0.229 µM)
- MIC [13]: 0.5 µg/mL (≈ 0.458 µM)
- MIC [14]: 0.5 µg/mL (≈ 0.458 µM)
